The values that follow come from patent US10011595B2 (Merck Sharp & Dohme Corp., priority 2014, dated 2018).

human orexin-2 receptor, sequence (O43614 whole entry): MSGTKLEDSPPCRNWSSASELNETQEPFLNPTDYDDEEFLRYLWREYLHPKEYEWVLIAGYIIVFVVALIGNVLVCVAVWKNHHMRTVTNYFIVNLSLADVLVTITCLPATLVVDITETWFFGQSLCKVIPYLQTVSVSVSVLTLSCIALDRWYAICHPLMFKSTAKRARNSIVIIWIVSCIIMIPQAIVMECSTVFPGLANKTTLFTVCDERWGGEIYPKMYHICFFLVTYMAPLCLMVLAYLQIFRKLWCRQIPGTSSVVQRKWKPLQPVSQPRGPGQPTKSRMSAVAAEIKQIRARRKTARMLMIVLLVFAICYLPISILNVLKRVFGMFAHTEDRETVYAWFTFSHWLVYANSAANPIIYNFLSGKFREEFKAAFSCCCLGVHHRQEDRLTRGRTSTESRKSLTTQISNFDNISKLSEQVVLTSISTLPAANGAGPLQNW

In the assay the target is human orexin-2 receptor (Homo sapiens (Human), UniProt O43614). Nature of the assay: FLIPR Ca2+ Flux Assay, orexin-2 receptor. It counts as cell-based. The conditions noted are these: CHO cells expressing the human orexin-2 receptor; agonist 70 pM Ala-6,12 orexin-A; read-out: hOX2R FLIPR IC50. As for the experimental part:
In a typical experiment the OX1 and OX2 receptor antagonistic activity of the compounds of the present invention was determined in accordance with the following experimental method. For intracellular calcium measurements, Chinese hamster ovary (CHO) cells expressing the rat orexin-1 receptor or the human orexin-2 receptor, are grown in Iscove's modified DMEM containing 2 mM L-glutamine, […], 1% hypoxanthine-thymidine supplement, 100 U/ml penicillin, 100 μg/ml streptomycin and 10% heat-inactivated fetal calf serum (FCS). The cells are seeded at 20,000 cells/well into Becton-Dickinson black 384-well clear bottom sterile plates coated with poly-D-lysine. All reagents were from GIBCO-Invitrogen Corp. The seeded plates are incubated overnight at 37° C. and 5% CO2. Ala-6,12 human orexin-A as the agonist is prepared as a 1 mM stock solution in 1% bovine serum albumin (BSA) and diluted in assay buffer (HBSS containing 20 mM HEPES, 0.1% BSA and 2.5 mM probenecid, pH7.4) for use in the assay at a final concentration of 70 pM. Test compounds are prepared as 10 mM stock solution in DMSO, then diluted in 384-well plates, first in DMSO, then assay buffer. On the day of the assay, cells are washed 3 times with 100 μl assay buffer and then incubated for 60 min (37° C., 5% CO2) in 60 μl assay buffer containing 1 μM Fluo-4AM ester, 0.02% pluronic acid, and 1% BSA. The dye loading solution is then aspirated and cells are washed 3 times with 100 μl assay buffer. 30 μl of that same buffer is left in each well. Within the Fluorescent Imaging Plate Reader (FLIPR, Molecular Devices), test compounds are added to the plate in a volume of 25 μl, incubated for 5 min and finally 25 μl of agonist is added. Fluorescence is measured for each well at 1 second intervals for 5 minutes and the height of each fluorescence peak is compared to the height of the fluorescence peak induced by 70 pM Ala-6,12 orexin-A with buffer in place of antagonist. For each antagonist, IC50 value (the concentration of compound needed to inhibit 50% of the agonist response) is determined. Alternatively, compound potency can be assessed by a radioligand binding assay (described in Bergman et. al. Bioorg. Med. Chem. Lett. 2008, 18, 1425-1430) in which the inhibition constant (Ki) is determined in membranes prepared from CHO cells expressing either the OX1 or OX2 receptor. The intrinsic orexin receptor antagonist activity of a compound which may be used in the present invention may be determined by these assays.
(Calcium assays in cells follow changes in intracellular calcium, usually with a dye or a luminescent sensor.)
The IC50 is the concentration at which inhibition is half-maximal. Consider `CCN(CCN(C)c1cccc(C#N)n1)C(=O)c1ccccc1-n1nccn1` [Example E-14, N-{2-[(6-cyanopyridin-2-yl)(methyl)amino]ethyl}-N-ethyl-2-(2H-1,2,3-triazol-2-yl)benzamide], for which the IC50 stood at 569 nM.

For `CCN(CCN(C)c1cccc(C(C)(C)O)n1)C(=O)c1ccccc1OCC(F)(F)F` [Example I-17, N-ethyl-N-(2-((6-(2-hydroxypropan-2-yl)pyridin-2-yl)(methyl)amino)ethyl)-2-(2,2,2-trifluoroethoxy)benzamide], the IC50 was found to be 326 nM. Then `CCCCN(CCN(C)c1cc(C#N)ccn1)C(=O)c1ccccc1-n1nccn1` [Example G-5, N-butyl-N-(2-((4-cyanopyridin-2-yl)(methyl)amino)ethyl)-2-(2H-1,2,3-triazol-2-yl)benzamide], with 19.8 nM. As to `CCN(CCN(C)c1cc(C#N)ccn1)C(=O)c1ccccc1COC` [Example F-16, N-{2-[(4-cyanopyridin-2-yl)(methyl)amino]ethyl}-N-ethyl-2-(methoxymethyl)benzamide], the IC50 worked out at 688 nM.

For `CCN(CCN(C)c1nccc(C(C)(C)O)n1)C(=O)c1ccccc1C1CC1(F)F` (centres unmarked) [Example H-26, 2-(2,2-difluorocyclopropyl)-N-ethyl-N-(2-((4-(2-hydroxypropan-2-yl)pyrimidin-2-yl)(methyl)amino)ethyl) benzamide], the 50% inhibitory concentration (IC50) is 16.9 nM.

In the case of `CCN(CCN(C)c1nc(C)cc(C)n1)C(=O)c1ccccc1C1CCC1` [Example B-26, 2-cyclobutyl-N-{2-[(4,6-dimethylpyrimidin-2-yl)(methyl)amino]ethyl}-N-ethylbenzamide], the IC50 was 20.4 nM.

On to `CCN(CCN(C)c1cc(C#N)ccn1)C(=O)c1ccccc1-n1cccn1` [Example F-12, N-{2-[(4-cyanopyridin-2-yl)(methyl)amino]ethyl}-N-ethyl-2-(1H-pyrazol-1-yl)benzamide], for which the IC50 turned out to be 49.6 nM. Turning to `CCN(CCN(C)c1cc(C#N)ccn1)C(=O)c1ccccc1-c1ncc[nH]1` [Example F-24, N-{2-[(4-cyanopyridin-2-yl)(methyl)amino]ethyl}-N-ethyl-2-(1H-imidazol-2-yl)benzamide], the IC50 turned out to be 1630 nM. For the compound `CCN(CCN(C)c1nc(C)cc(C)n1)C(=O)c1ccccc1N1CCCC1` [Example B-30, N-{2-[(4,6-dimethylpyrimidin-2-yl)(methyl)amino]ethyl}-N-ethyl-2-pyrrolidin-1-ylbenzamide], the IC50 amounted to 18.5 nM. The value for `CCN(CCN(C)c1cc(C#N)ccn1)C(=O)c1ccccc1OCC(F)(F)F` [Example F-14, N-{2-[(4-cyanopyridin-2-yl)(methyl)amino]ethyl}-N-ethyl-2-(2,2,2-trifluoroethoxy)benzamide] was 77.4 nM. As to `CCN(CCN(C)c1nccc(C#N)c1C)C(=O)c1ccccc1-n1nccn1` [Example E-7, N-(2-((4-cyano-3-methylpyridin-2-yl)(methyl)amino)ethyl)-N-ethyl-2-(2H-1,2,3-triazol-2-yl)benzamide], the concentration for half-maximal inhibition (IC50) is 198 nM.

In the case of `CCOc1ccccc1C(=O)N(CC)CCN(C)c1cccc(C(C)(C)O)n1` [Example I-18, 2-ethoxy-N-ethyl-N-(2-((6-(2-hydroxypropan-2-yl)pyridin-2-yl)(methyl)amino)ethyl)benz-amide], the IC50 was determined as 154 nM. As to `CCN(CCN(C)c1cc(C#N)ccn1)C(=O)c1cc(C)ccc1-n1nccn1` [Example F-20, N-{2-[(4-cyanopyridin-2-yl)(methyl)amino]ethyl}-N-ethyl-5-methyl-2-(2H-1,2,3-triazol-2-yl)benzamide], the IC50 came to 16.2 nM. The value for `CCN(CCN(C)c1nccc(C(C)(C)O)n1)C(=O)c1nccnc1-n1cccn1` [Example H-32, N-ethyl-N-(2-((4-(2-hydroxypropan-2-yl)pyrimidin-2-yl)(methyl)amino)ethyl)-3-(1H-pyrazol-1-yl)pyrazine-2-carboxamide] was 54 nM.

In the case of `CCN(CCN(C)c1nc(C)cc(C)n1)C(=O)c1ccccc1-n1cccn1` [Example B-14, N-(2-((4,6-dimethylpyrimidin-2-yl)(methyl)amino)ethyl)-N-ethyl-2-(1H-pyrazol-1-yl)benzamide], the IC50 worked out at 13.9 nM. On to `CCN(CCN(C)c1nc(C)cc(C)n1)C(=O)c1nccnc1-n1cccn1` [Example B-28, N-{2-[(4,6-dimethylpyrimidin-2-yl)(methyl)amino]ethyl}-N-ethyl-3-(1H-pyrazol-1-yl)pyrazine-2-carboxamide], for which the IC50 is 18.7 nM. On to `CCN(CCN(C)c1nc(C)cc(C)n1)C(=O)c1ccc(F)cc1-n1nccn1` [Example B-12, N-(2-((4,6-dimethylpyrimidin-2-yl)(methyl)amino)ethyl)-N-ethyl-4-fluoro-2-(2H-1,2,3-triazol-2-yl)benzamide], for which the IC50 was 12.6 nM. As for `CCN(CCN(C)c1cccc(C(C)(C)O)n1)C(=O)c1ncccc1-c1ccccc1` [Example I-22, N-ethyl-N-(2-((6-(2-hydroxypropan-2-yl)pyridin-2-yl)(methyl)amino)ethyl)-3-phenylpicolinamide], the IC50 is 211 nM. For the compound `CCN(CCN(C)c1nccc(C(C)(C)O)n1)C(=O)c1ccccc1OC(F)F` [Example H-18, 2-(difluoromethoxy)-N-ethyl-N-(2-((4-(2-hydroxypropan-2-yl)pyrimidin-2-yl)(methyl)amino)ethyl) benzamide], the IC50 is 49.3 nM.

As for `CCCc1ccccc1C(=O)N(CC)CCN(C)c1nc(C)cc(C)n1` [Example B-16, N-{2-[(4,6-dimethylpyrimidin-2-yl)(methyl)amino]ethyl}-N-ethyl-2-propylbenzamide], the IC50 stood at 19.9 nM. The value for `CCN(CCN(C)c1nccc(C(C)(C)O)n1)C(=O)c1ccccc1OCC(F)(F)F` [Example H-20, N-ethyl-N-(2-((4-(2-hydroxypropan-2-yl)pyrimidin-2-yl)(methyl)amino)ethyl)-2-(2,2,2-trifluoroethoxy)benzamide] was 32 nM; that for `CCN(CCN(C)c1nccc(C(C)(C)O)n1)C(=O)c1ccccc1CC(F)F` [Example H-24, 2-(2,2-difluoroethyl)-N-ethyl-N-(2-((4-(2-hydroxypropan-2-yl)pyrimidin-2-yl)(methyl)amino)ethyl) benzamide] was 20.6 nM. Then `CCN(CCN(C)c1nc(C)cc(C)n1)C(=O)c1ccccc1-n1nccn1` [Example A-1, N-(2-((4,6-dimethylpyrimidin-2-yl)(methyl)amino)ethyl)-N-ethyl-2-(2H-1,2,3-triazol-2-yl)benzamide], with 36.5 nM; and `CCCN(CCN(C)c1cc(C#N)ccn1)C(=O)c1ccccc1-n1nccn1` [Example G-4, N-(2-((4-cyanopyridin-2-yl)(methyl)amino)ethyl)-N-propyl-2-(2H-1,2,3-triazol-2-yl)benzamide], with 12.1 nM; and `CCN(CCN(C)c1nc(C)cc(C)n1)C(=O)c1ccccc1C1CC1(F)F` (centres unmarked) [Example B-29, 2-(2,2-difluorocyclopropyl)-N-{2-[(4,6-dimethylpyrimidin-2-yl)(methyl)amino]ethyl}-N-ethylbenzamide], with 18.9 nM. With `CCN(CCN(C)c1cc(C#N)ccn1)C(=O)c1ccccc1-n1nccn1` [Example E-1, N-(2-((4-cyanopyridin-2-yl)(methyl)amino)ethyl)-N-ethyl-2-(2H-1,2,3-triazol-2-yl)benzamide], the IC50 came out at 14.5 nM.
